The record followed here is PMC5740381 (Antimicrobial Agents and Chemotherapy, 2017).

Where “and” joins values, the source holds several entries; their conditions need not be identical. Equal entries are not always repeated. Where two headings read alike, the source gives them in different places. Where only a bound is given, the exact number is not on record here.

The subject of data set [1] is HCV subgenomic stable replicon GT2b. The data set is described as follows: Stable HCV replicon luciferase assay in Huh-7 cells. The note with it: Hepatitis C virus, 0% human plasma, read-out: Mean EC50 ± SD. Type of data set: cell-based. An excerpt:
Five of these nine cell lines have been described previously, including those transfected with genotypes 1a H77, 1b Con1, 3a, 4a, and 6a ([28]). […] The genotype 2b and 6e NS3 sequences were each synthetically constructed based on a consensus sequence derived from the alignment of 15 genotype 2b and 4 genotype 6e sequences, respectively. All replicon constructs were bicistronic subgenomic replicons similar to those described by Bartenschlager and coworkers, and the replicon cell lines were generated by introducing these constructs into cells of an Huh-7 human hepatoma-derived cell line ([50]). The inhibitory effect of the PIs on HCV replication in replicon cells was determined in Dulbecco's modified Eagle medium containing 5% fetal bovine serum with or without 40% human plasma (Bioreclamation, Westbury, NY). The EC50s were determined using nonlinear regression curve fitting as described previously ([33]).

The test system of data set [2] is HCV replicons containing proteases from 40 samples, genotypes 1 to 5. The data set is described as follows: Transient replicon assay with patient proteases, all 40 samples. Type of data set: cell-based. The note with it: Hepatitis C virus, 40 clinical samples. The source says: […]. Each of the NS3 gene sequences from genotypes 1, 2, and 4, with the exception of two genotype 2b sequences, was derived from serum or plasma from an HCV-infected patient by bulk PCR amplification, producing a population of sequences representing the viral quasispecies. Two genotype 2b sequences were synthesized based on the consensus sequences of the respective samples. One genotype 3a sequence was synthesized based on a consensus sequence from the sequences available in the Los Alamos HCV sequence database, and another genotype 3a sequence was a clonal sequence derived from a patient sample. The genotype 5a sequence (strain SA13) was synthesized based on the published sequence of the HCV isolate ([48]).
Transient replicons containing NS3 from clinical samples from HCV genotype 1a- and 1b-infected patients were described previously ([28]). For the transient replicons containing NS3/4A from samples from genotype 3a-infected patients, the first 251 amino acids of NS3 and the region encoding NS4A amino acids 21 to 32 (numbered relative to the NS4A coding region) from these HCV samples were cloned to replace the corresponding residues from the backbone of a genotype 1b Con1 shuttle vector. […]
For orientation: In antiviral work, replicon cells carry a viral genome segment that copies itself.

Another data set concerns HBV. The data set is described as follows: Anti-HBV assay, extracellular HBV DNA by quantitative PCR. As to conditions: Hepatitis B virus, read-out: Mean EC50 ± SD. Type of data set: cell-based.
The subject of data set [3] is HCV genotype 5a replicon cells. The data set is described as follows: Drug-resistant colony selection in replicon cells. Type of data set: cell-based, Hepatitis C virus. An excerpt: . After approximately 3 weeks of treatment, the surviving replicon colonies in one plate for each selection condition were stained with crystal violet and counted, whereas approximately 20 to 30 colonies in a replicate plate or most of the colonies, if less than 20 colonies survived the selection, were picked and further expanded for genotyping. The expanded colonies were lysed in CellsDirect lysis buffer (Invitrogen, MA), and the NS3-coding region from each colony was amplified by reverse transcription-PCR and sequenced. For genotype 1a, 1b, 2a, and 5a colonies, the full-length NS3 sequence was determined, whereas for colonies of the chimeric replicon containing the N-terminal region of NS3 from genotype 2b, 3a, 4a, or 6a, the sequence encoding the NS3 N-terminal region was determined. We defined a substitution in a replicon to be an amino acid difference in a sequence from a posttreatment sample relative to the sequence of the corresponding untreated sample. For resistance selection studies, NS3 substitutions detected at the following amino acid positions associated with resistance to the HCV PI class in >2 colonies in each replicon selection are reported: 36, 43, 54, 55, 56, 80, 122, 155, 156, and 168. In addition, substitutions detected at other amino acid positions in the NS3 protease domain in >2 colonies in each replicon selection are also reported.

Data set [4] concerns HCV genotype 1 to 6 NS3/4A proteases. In words: HCV NS3/4A protease biochemical assay, all genotypes. Details: species or system Hepatitis C virus. As to conditions: read-out: IC50, range over proteases. An excerpt:
. […] Genes encoding NS3/4A were derived from laboratory strains 1a-H77 (GenBank accession number NC_004102) and 1b-N (GenBank accession number AF139594) or from clinical samples from patients infected with genotype 2a, 2b, 3a, or 4a. All patients provided written informed consent. Clinical studies were designed according to Good Clinical Practice guidelines, the Declaration of Helsinki, and applicable local regulations, with independent ethics committee or institutional review board approval for all study sites. The genotype 5a NS3/4A gene sequence was synthetically constructed based on the sequence of the clinical isolate SA13 (GenBank accession number AF064490) ([48]), whereas the genotype 6a NS3/4A gene sequence was synthetically constructed based on a consensus sequence derived from the alignment of 15 genotype 6a sequences available in GenBank. The NS3/4A genes were each cloned into the protein expression vector pET14b (Novagen, Madison, WI), and a clone with an NS3/4A protease sequence that matched the consensus sequence for each sample was subsequently selected for protein expression and purification. Protease activity was measured by continuous monitoring of the fluorescence change associated with the cleavage of a fluorogenic depsipeptide (EDANS/DABCYL) substrate using a purified recombinant HCV NS3/4A protease as described previously ([49]). […]

The nature of another data set: MTT cytotoxicity assay. As to conditions: human. The procedure:
For MT4 cells, 10,000 cells/well were plated immediately before the addition of glecaprevir. The rest of the assay was performed as described previously ([33]).
For orientation: Tetrazolium assays rely on reduction of a dye to a coloured formazan, in cell work by metabolically active cells.

For `Cc1cnc(C(=O)N[C@H]2CCCCC/C=C\[C@@H]3C[C@@]3(C(=O)NS(=O)(=O)C3CC3)NC(=O)[C@@H]3C[C@@H](Oc4nc5ccccc5c5ccccc45)CN3C2=O)cn1` [Paritaprevir], in data set [1], the EC50 – broadly, the concentration giving half of the maximal effect – was 107 ± 17 nM.
As for `CC(C)(C)[C@@H]1NC(=O)O[C@@H]2CCC[C@H]2OC/C=C/C(F)(F)c2nc3ccccc3nc2O[C@@H]2C[C@@H](C(=O)N[C@]3(C(=O)NS(=O)(=O)C4(C)CC4)C[C@H]3C(F)F)N(C2)C1=O` [Glecaprevir, (3aR,7S,10S,12R,21E,24aR)-7-tert-butyl-N-[(1R,2R)-2-(difluoromethyl)-1-{[(1-methylcyclopropyl)sulfonyl]carbamoyl}cyclopropyl]-20,20-difluoro-5,8-dioxo-2,3,3a,5,6,7,8,11,12,20,23,24a-dodecahydro-1H,10H-9,12-methanocyclopenta[18,19][1,10,17,3,6]trioxadiazacyclononadecino[11,12-b]quinoxaline-10-carboxamide], the EC50 was 0.05 to 3.8 nM in data set [2] (read-out: EC50 range, overall); 0.3 nM in data set [2] (read-out: Overall median EC50); above 32 µM in the data set with HBV; 4.6 ± 1.2 nM in data set [1]. Moreover, the Colony survival was found to be 0.001% in data set [3] (10× EC50) and 0% in data set [3] (100× EC50). Further, the IC50 – broadly, the concentration that inhibits the measured activity by half – in data set [4] lay in the range of 3.5 to 11.3 nM. For the same compound, in “MTT cytotoxicity assay”, the half-maximal cytotoxic concentration (CC50) (usually the concentration giving 50% cytotoxicity) was 72 µM and 60 µg/mL.
